Measurements from patent publication US8877748B2, “Heterocyclic fused anthraquinone derivatives, manufacturing method and pharmaceutical composition using thereof” (National Defense Medical Center, priority 2012, dated 2014).

Legend:
DU145 = test: NCI one-dose screening, prostate cancer DU145; assay type: cell-based, human; details: DU145, 10 μM
OVCAR-5 = test: NCI one-dose screening, ovarian cancer OVCAR-5; assay type: cell-based, human; details: OVCAR-5, 10 μM
EKVX = test: NCI one-dose screening, non-small cell lung cancer EKVX; assay type: cell-based, human; details: EKVX
UACC-257 = test: NCI one-dose screening, melanoma UACC-257; assay type: cell-based, human; details: UACC-257, 10 μM
A549/ATCC = test: NCI one-dose screening, non-small cell lung cancer A549/ATCC; assay type: cell-based, human; details: A549/ATCC
HS 578-T = test: NCI one-dose screening, breast cancer HS 578-T; assay type: cell-based, human; details: Breast cancer, HS 578T, 10 μM
HT29 = test: NCI one-dose screening, colon cancer HT29; assay type: cell-based, human; details: HT29, 10 μM
OVCAR-4 = test: NCI one-dose screening, ovarian cancer OVCAR-4; assay type: cell-based, human; details: OVCAR-4, 10 μM
SN12C = test: NCI one-dose screening, renal cancer SN12C; assay type: cell-based, human; details: SN12C
786-O = test: NCI one-dose screening, renal cancer 786-O; assay type: cell-based, human; details: 786-0, 10 μM
MDA-MB-231/ATCC = test: NCI one-dose screening, breast cancer MDA-MB-231/ATCC; assay type: cell-based, human; details: MDA-MB-231/ATCC
MCF7 = test: NCI one-dose screening, breast cancer MCF7; assay type: cell-based, human; details: MCF7, 10 μM
CAKI-1 = test: NCI one-dose screening, renal cancer CAKI-1; assay type: cell-based, human; details: CAKI-1, 10 μM
human tumor cell lines = test: NCI one-dose screening, mean, delta and range of growth percent over all cell lines tested; assay type: cell-based
COLO 205 = test: NCI one-dose screening, colon cancer COLO 205; assay type: cell-based, human; details: COLO 205, 10 μM
SR = test: NCI one-dose screening, leukemia SR; assay type: cell-based, human; details: SR
SK-MEL-2 = test: NCI one-dose screening, melanoma SK-MEL-2; assay type: cell-based, human; details: SK-MEL-2, 10 μM
UO-31 = test: NCI one-dose screening, renal cancer UO-31; assay type: cell-based, human; details: UO-31, 10 μM
ACHN = test: NCI one-dose screening, renal cancer ACHN; assay type: cell-based, human; details: ACHN
SF-268 = test: NCI one-dose screening, CNS cancer SF-268; assay type: cell-based, human; details: SF-268, 10 μM
MALME-3M = test: NCI one-dose screening, melanoma MALME-3M; assay type: cell-based, human; details: MALME-3M
NCI-H460 = test: NCI one-dose screening, non-small cell lung cancer NCI-H460; assay type: cell-based, human; details: NCI-H460, 10 μM
MDA, -MB-435 = test: NCI one-dose screening, breast cancer MDA, -MB-435; assay type: cell-based, human; details: Melanoma, MDA-MB-435, 10 μM
OVCAR-3 = test: NCI one-dose screening, ovarian cancer OVCAR-3; assay type: cell-based, human; details: OVCAR-3, 10 μM
KM12 = test: NCI one-dose screening, colon cancer KM12; assay type: cell-based, human; details: KM12, 10 μM
UACC-62 = test: NCI one-dose screening, melanoma UACC-62; assay type: cell-based, human; details: UACC-62, 10 μM
MDA-MB-468 = test: NCI one-dose screening, breast cancer MDA-MB-468; assay type: cell-based, human; details: MDA-MB-468, 10 μM
OVCAR-8 = test: NCI one-dose screening, ovarian cancer OVCAR-8; assay type: cell-based, human; details: OVCAR-8, 10 μM
HOP-62 = test: NCI one-dose screening, non-small cell lung cancer HOP-62; assay type: cell-based, human; details: HOP-62, 10 μM
SNB-75 = test: NCI one-dose screening, CNS cancer SNB-75; assay type: cell-based, human; details: SNB-75, 10 μM
HCT-15 = test: NCI one-dose screening, colon cancer HCT-15; assay type: cell-based, human; details: HCT-15, 10 μM
T-47D = test: NCI one-dose screening, breast cancer T-47D; assay type: cell-based, human; details: T-47D
NCI-H226 = test: NCI one-dose screening, non-small cell lung cancer NCI-H226; assay type: cell-based, human; details: NCI-H226, 10 μM
SNB-19 = test: NCI one-dose screening, CNS cancer SNB-19; assay type: cell-based, human; details: SNB-19, 10 μM
MOLT-4 = test: NCI one-dose screening, leukemia MOLT-4; assay type: cell-based, human; details: MOLT-4, 10 μM
SK-MEL-5 = test: NCI one-dose screening, melanoma SK-MEL-5; assay type: cell-based, human; details: SK-MEL-5, 10 μM
[1] = test system: PC-3 prostate cancer cell line; test: SRB assay cell viability, PC-3 prostate cancer cell line; assay type: cell-based, human; details: Homo sapiens, PC-3 prostate cancer cell line, Table II prints no unit, μM printed, read-out: SRB assay: 50% inhibition of cancer cell proliferation of sample concentration (IC50) of PC-3 prostate cancer cell line
K562cell line = test: NCI one-dose screening, leukemia K562; assay type: cell-based, human; details: K562, 10 μM
IGROV1 = test: NCI one-dose screening, ovarian cancer IGROV1; assay type: cell-based, human; details: IGROV1, 10 μM
HCT-116 = test: NCI one-dose screening, colon cancer HCT-116; assay type: cell-based, human; details: HCT-116, 10 μM
TK-10 = test: NCI one-dose screening, renal cancer TK-10; assay type: cell-based, human; details: TK-10, 10 μM
LOX IMVI = test: NCI one-dose screening, melanoma LOX IMVI; assay type: cell-based, human; details: LOX IMVI
SK-MEL-28 = test: NCI one-dose screening, melanoma SK-MEL-28; assay type: cell-based, human; details: SK-MEL-28, 10 μM

Cc1ccc(Nc2cc3c(c4nsnc24)C(=O)c2ccccc2C3=O)cc1 [C64, 4-(p-tolylamino)anthra[2,1-c][1,2,5] thiadiazol-6,11-dione]
Growth Percent (10 μM) (DU145): 68.26%
Growth Percent (10 μM) (OVCAR-5): 109.85%
Growth Percent (10 μM) (EKVX): 82.17%
Growth Percent (10 μM) (UACC-257): 71.17%
Growth Percent (10 μM) (A549/ATCC): 56.25%
Growth Percent (10 μM) (HS 578-T): 78.75%
Growth Percent (10 μM) (HT29): 96.29%
Growth Percent (10 μM) (OVCAR-4): 31.44%
Growth Percent (10 μM) (SN12C): 74.58%
Growth Percent (10 μM) (786-O): 74.18%
Growth Percent (10 μM) (MDA-MB-231/ATCC): 73.83%
Growth Percent (10 μM) (MCF7): 46.59%
Growth Percent (10 μM) (CAKI-1): 50.33%
Growth Percent (10 μM), Delta (human tumor cell lines; Delta over all cell lines tested): 48.49%
Growth Percent (10 μM), Mean (human tumor cell lines; Mean over all cell lines tested): 61.35%
Growth Percent (10 μM), Range (human tumor cell lines; Range over all cell lines tested): 96.99%
Growth Percent (10 μM) (COLO 205): 100.68%
Growth Percent (10 μM) (SR): 26.12%
Growth Percent (10 μM) (SK-MEL-2): 93.85%
Growth Percent (10 μM) (UO-31): 56.97%
Growth Percent (10 μM) (ACHN): 57.60%
Growth Percent (10 μM) (SF-268): 52.27%
Growth Percent (10 μM) (MALME-3M): 78.41%
Growth Percent (10 μM) (NCI-H460): 21.80%
Growth Percent (10 μM) (MDA, -MB-435): 65.53%
Growth Percent (10 μM) (OVCAR-3): 57.92%
Growth Percent (10 μM) (KM12): 64.56%
Growth Percent (10 μM) (UACC-62): 67.41%
Growth Percent (10 μM) (MDA-MB-468): 58.18%
Growth Percent (10 μM) (OVCAR-8): 53.96%
Growth Percent (10 μM) (HOP-62): 65.10%
Growth Percent (10 μM) (SNB-75): 80.91%
Growth Percent (10 μM) (HCT-15): 32.24%
Growth Percent (10 μM) (T-47D): 64.48%
Growth Percent (10 μM) (NCI-H226): 66.61%
Growth Percent (10 μM) (SNB-19): 82.28%
Growth Percent (10 μM) (MOLT-4): 12.86%
Growth Percent (10 μM) (SK-MEL-5): 24.13%
IC50 [1]: 0.84 µM
Growth Percent (10 μM) (K562cell line): 33.45%
Growth Percent (10 μM) (IGROV1): 49.40%
Growth Percent (10 μM) (HCT-116): 31.32%
Growth Percent (10 μM) (TK-10): 95.15%
Growth Percent (10 μM) (LOX IMVI): 27.05%
Growth Percent (10 μM) (SK-MEL-28): 74.97%
